This is an account of results in USRE37919E1, “Recombinant DNA method for production of parathyroid hormone” (The General Hospital Corporation, priority 1989, dated 2002).

Usually EC50 stands for the concentration that produces a half-maximal response.

Like-named read-outs stand apart in the source and are kept apart here.

The subject of assay [1] is opossum kidney cells. It is filed as cell-based. An excerpt:
(§1) Therefore, the recombinant peptide had PTH biological activity which is largely indistinguishable from that of a known active fragment.

Assay [2] has as its system UMR rat osteosarcoma cell line. Description: Binding to UMR rat osteosarcoma cell line. The following applies: FIG. 4. Here is the method: (§2) The recombinant peptide produced as described in Example 1 above was tested for it binding to two cells types.
A further assay deals with UMR cells. Description: Cyclic AMP response of UMR tumor cells. The class given is cell-based, rat. Conditions: FIG. 6, read-out: EC50 of cyclic AMP stimulation.
Excerpt: as §1

In assay [3] the test system is opossum kidney cells. Description: Binding to opossum kidney cells. Conditions: FIG. 3. Here is the method: as §2
The target in another assay is T1, PTH receptors (Homo sapiens, UniProt Q03431).
T1 sequence (Q03431 27-593): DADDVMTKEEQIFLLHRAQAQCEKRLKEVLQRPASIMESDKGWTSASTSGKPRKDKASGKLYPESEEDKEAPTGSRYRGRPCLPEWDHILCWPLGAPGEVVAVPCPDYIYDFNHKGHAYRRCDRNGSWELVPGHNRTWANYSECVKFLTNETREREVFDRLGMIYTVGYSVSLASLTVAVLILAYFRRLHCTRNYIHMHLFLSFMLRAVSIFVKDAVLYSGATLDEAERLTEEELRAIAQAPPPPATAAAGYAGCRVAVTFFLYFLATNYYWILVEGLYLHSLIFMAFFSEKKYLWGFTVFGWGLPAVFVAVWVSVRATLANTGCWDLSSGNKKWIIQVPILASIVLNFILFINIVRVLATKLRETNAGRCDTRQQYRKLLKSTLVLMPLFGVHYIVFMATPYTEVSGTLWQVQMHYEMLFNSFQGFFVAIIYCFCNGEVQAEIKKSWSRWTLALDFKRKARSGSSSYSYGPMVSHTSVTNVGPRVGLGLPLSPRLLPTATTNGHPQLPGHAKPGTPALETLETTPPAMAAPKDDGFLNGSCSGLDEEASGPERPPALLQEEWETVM
The following applies: literature; cited from earlier work.

As for `CC[C@H](C)[C@H](NC(=O)[C@H](CCC(=O)O)NC(=O)[C@H](CO)NC(=O)[C@@H](NC(=O)[C@@H](N)CO)C(C)C)C(=O)N[C@@H](CCC(N)=O)C(=O)N[C@@H](CC(C)C)C(=O)N[C@@H](CCSC)C(=O)N[C@@H](Cc1c[nH]cn1)C(=O)N[C@@H](CC(N)=O)C(=O)N[C@@H](CC(C)C)C(=O)NCC(=O)N[C@@H](CCCCN)C(=O)N[C@@H](Cc1c[nH]cn1)C(=O)N[C@@H](CC(C)C)C(=O)N[C@@H](CC(N)=O)C(=O)N[C@@H](CO)C(=O)N[C@@H](CCSC)C(=O)N[C@@H](CCC(=O)O)C(=O)N[C@@H](CCCNC(=N)N)C(=O)N[C@H](C(=O)N[C@@H](CCC(=O)O)C(=O)N[C@@H](Cc1c[nH]c2ccccc12)C(=O)N[C@@H](CC(C)C)C(=O)N[C@@H](CCCNC(=N)N)C(=O)N[C@@H](CCCCN)C(=O)N[C@@H](CCCCN)C(=O)N[C@@H](CC(C)C)C(=O)N[C@@H](CCC(N)=O)C(=O)N[C@@H](CC(=O)O)C(=O)N[C@H](C(=O)N[C@@H](Cc1c[nH]cn1)C(=O)N[C@@H](CC(N)=O)C(=O)N[C@@H](Cc1ccccc1)C(=O)O)C(C)C)C(C)C` [synthetic PTH(1-34)], the EC50 was roughly 4 nM in the assay on opossum kidney cells [1] and roughly 0.1 nM in the assay on UMR cells. For the same molecule, the “half-maximum value of binding” value in assay [2] is “about 2 nM”. The half-maximal binding result with opossum kidney cells [3] is reported as “about 1 nM”.

In the case of “PTH (3-34): synthetic analog of bovine PTH, recognized PTH antagonist (SEIQFMHNLGKHLSSMERVEWLRKKLQDVHNF; Parathyroid hormone; UniProt P01268 34-65, looked up, fragment)”, the “PTH antagonist activity in vitro” value in the assay with PTH receptors is reported as “potent PTH antagonist”.

Consider “human parathyroid hormone 1-84 [recombinant hPTH(1-84)]”, for which the concentration for a half-maximal effect (EC50) in the assay with opossum kidney cells [1] (opossum kidney cells, FIG. 5, read-out: EC50 of cyclic AMP stimulation) was roughly 10 nM; with UMR cells, roughly 3 nM. The “half-maximum value of binding” value in assay [2] is on record as “about 10 nM”. For the same molecule, the half-maximal binding entry in the assay with opossum kidney cells [3] is reported as “about 3 nM”.
